Assays:
Type in all cases: in vivo
[1] = system: barnyardgrass (Echinochloa crus-galli); assay: Test A postemergence, barnyardgrass; details: Postemergence, 0 to 100 scale (0 no effect, 100 complete control); for Barnyardgrass plant response rating: 500 g ai/ha, visual injury vs untreated controls after approx. 10 days
Outline: (§1)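 Compounds in non-phytotoxic solvent with surfactant. Soil: loam/sand. Preemergence via directed soil spray after seeding; postemergence on seedlings 2–10 cm, one- to two-leaf.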

kochia (Bassia scoparia) [2] = assay: Test A postemergence, kochia; details: Postemergence; for Kochia plant response rating: 500 g ai/ha, visual injury vs untreated controls after approx. 10 days
Outline: (§2)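 Formulated with a surfactant in a non-phytotoxic solvent, compounds are applied to loam–sand pots, either to bare soil immediately after seeding (preemergence) or to seedlings of 2 to 10 cm bearing one to two leaves (postemergence).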

[3] = system: blackgrass (Alopecurus myosuroides); assay: Test A postemergence, blackgrass; details: Postemergence, 0 to 100 scale (0 no effect, 100 complete control); for Blackgrass plant response rating: 500 g ai/ha, visual injury vs untreated controls after approx. 10 days
Outline: as §2

[4] = system: pigweed (Amaranthus retroflexus); assay: Test A postemergence, pigweed; details: Postemergence; for Pigweed plant response rating: 500 g ai/ha, visual injury vs untreated controls after approx. 10 days
Outline: as §2

[5] = system: barnyardgrass (Echinochloa crus-galli); assay: Test A preemergence, barnyardgrass; details: Preemergence; for Plant response rating, Barnyardgrass: 0 to 100 scale (0 no effect, 100 complete control); for Barnyardgrass plant response rating: 125 g ai/ha, visual injury on 0 to 100 scale (0 no effect, 100 complete control), approximately 10 days
Outline: as §2

[6] = system: Foxtail, Giant (giant foxtail, Setaria faberi); assay: Test A postemergence, Foxtail, Giant; details: Postemergence; for Foxtail, Giant plant response rating: 500 g ai/ha, visual injury vs untreated controls after approx. 10 days
Outline: as §2

corn (Zea mays) = assay: Test A postemergence, corn; details: Postemergence; for Corn plant response rating: 500 g ai/ha, visual injury vs untreated controls after approx. 10 days
Outline: as §2

[7] = system: ragweed (common ragweed, Ambrosia artemisiifolia); assay: Test A postemergence, ragweed; details: Postemergence; for Ragweed plant response rating: 500 g ai/ha, visual injury vs untreated controls after approx. 10 days
Outline: as §2

kochia (Bassia scoparia) [8] = assay: Test A preemergence, kochia; details: Preemergence; for Plant response rating, Kochia: 0 to 100 scale (0 no effect, 100 complete control); for Kochia plant response rating: 125 g ai/ha, visual injury on 0 to 100 scale (0 no effect, 100 complete control), approximately 10 days
Outline: as §2

[9] = system: Ryegrass, Italian (Italian ryegrass, Lolium multiflorum); assay: Test A postemergence, Ryegrass, Italian; details: Postemergence; for Ryegrass, Italian plant response rating: 500 g ai/ha, visual injury vs untreated controls after approx. 10 days
Outline: as §2

[10] = system: Ryegrass, Italian (Italian ryegrass, Lolium multiflorum); assay: Test A preemergence, Ryegrass, Italian; details: Preemergence; for Plant response rating, Ryegrass, Italian: 0 to 100 scale (0 no effect, 100 complete control); for Ryegrass, Italian plant response rating: 125 g ai/ha, visual injury on 0 to 100 scale (0 no effect, 100 complete control), approximately 10 days
Outline: as §2

[11] = system: pigweed (Amaranthus retroflexus); assay: Test A preemergence, pigweed; details: for Plant response rating, Pigweed: 0 to 100 scale (0 no effect, 100 complete control); for Pigweed plant response rating: 125 g ai/ha, visual injury on 0 to 100 scale (0 no effect, 100 complete control), approximately 10 days
Outline: as §1

[12] = system: Foxtail, Giant (giant foxtail, Setaria faberi); assay: Test A preemergence, Foxtail, Giant; details: Preemergence; for Plant response rating, Foxtail, Giant: 0 to 100 scale (0 no effect, 100 complete control); for Foxtail, Giant plant response rating: 125 g ai/ha, visual injury on 0 to 100 scale (0 no effect, 100 complete control), approximately 10 days
Outline: as §2

[13] = system: galium (catchweed bedstraw, Galium aparine); assay: Test A postemergence, galium; details: Postemergence; for Galium plant response rating: 500 g ai/ha, visual injury vs untreated controls after approx. 10 days
Outline: as §1

[14] = system: ragweed (common ragweed, Ambrosia artemisiifolia); assay: Test A preemergence, ragweed; details: Preemergence; for Plant response rating, Ragweed: 0 to 100 scale (0 no effect, 100 complete control); for Ragweed plant response rating: 125 g ai/ha, visual injury on 0 to 100 scale (0 no effect, 100 complete control), approximately 10 days
Outline: as §2

[15] = system: wheat (Triticum aestivum); assay: Test A postemergence, wheat; details: Postemergence; for Wheat plant response rating: 500 g ai/ha, visual injury vs untreated controls after approx. 10 days
Outline: as §1

[16] = 125 g ai/ha, visual injury approx. 10 days
[17] = 31 g ai/ha, visual injury on 0 to 100 scale (0 no effect, 100 complete control), approx. 10 days
[18] = 125 g ai/ha, visual injury approx. 10 days, 0 to 100 scale (0 no effect, 100 complete control)
[19] = 31 g ai/ha, visual injury, approx. 10 days
[20] = 0 to 100 scale (0 no effect, 100 complete control)

Compound | Plant response rating, Barnyardgrass [1, 16] | Plant response rating, Kochia (kochia (Bassia scoparia) [2]; [18]) | Plant response rating, Blackgrass [3, 16] | Plant response rating, Pigweed [4, 18] | Barnyardgrass plant response rating [5] | Plant response rating, Foxtail, Giant [6, 18] | Plant response rating, Corn (corn (Zea mays); [18]) | Plant response rating, Ragweed [7, 18] | Kochia plant response rating (kochia (Bassia scoparia) [8]) | Ryegrass, Italian plant response rating [10] | Pigweed plant response rating [11] | Foxtail, Giant plant response rating [12] | Plant response rating, Galium [13, 18] | Ragweed plant response rating [14] | Plant response rating, Wheat [15, 18] | Barnyardgrass plant response rating [1] | Kochia plant response rating (kochia (Bassia scoparia) [2]; [20]) | Blackgrass plant response rating [3] | Pigweed plant response rating [4, 20] | Plant response rating, Barnyardgrass ([5]; 500 g ai/ha) | other results
Cc1cc(C)c(N(S(=O)(=O)C(F)(F)F)S(=O)(=O)C(F)(F)F)cc1C(=O)N1CCCC(F)C1 (stereo not drawn) [Compound 118] | 90 | 40 | 10 | 90 | 90 | 30 | 0 | 80 | 0 | 80 | 100 | 100 | 90 | 100 | 40 | – | – | – | – | – | Plant response rating, Barnyardgrass ([1]; 31 g ai/ha): 10; Plant response rating, Kochia (kochia (Bassia scoparia) [2]; [17]): 10; Plant response rating, Blackgrass ([3]; 31 g ai/ha): 20; Plant response rating, Pigweed [4, 17]: 30; Plant response rating, Barnyardgrass [5, 19]: 0; Plant response rating, Foxtail, Giant [6, 17]: 0; Plant response rating, Corn (corn (Zea mays); [17]): 0; Plant response rating, Ragweed [7, 17]: 20; Plant response rating, Kochia (kochia (Bassia scoparia) [8]; [19]): 0; Plant response rating, Ryegrass, Italian [9, 17]: 0; Plant response rating, Ryegrass, Italian [10, 19]: 40; Plant response rating, Pigweed [11, 19]: 100; Plant response rating, Foxtail, Giant [12, 19]: 80; Plant response rating, Galium [13, 17]: 40; Plant response rating, Ragweed [14, 19]: 50; Plant response rating, Wheat [15, 17]: 0
COC1CCCN(C(=O)c2cc(N(S(=O)(=O)C(F)(F)F)S(=O)(=O)C(F)(F)F)c(C)cc2C)C1 (stereo not drawn) [Compound 119] | 40 | 20 | 0 | 40 | 100 | 30 | 10 | 70 | 50 | 80 | 100 | 100 | 80 | 80 | 10 | 90 | 60 | 40 | 70 | 100 | Foxtail, Giant plant response rating [6, 20]: 80; Corn plant response rating (corn (Zea mays); [20]): 30; Ragweed plant response rating [7, 20]: 90; Plant response rating, Kochia (kochia (Bassia scoparia) [8]; 500 g ai/ha): 100; Plant response rating, Ryegrass, Italian [9, 18]: 20; Ryegrass, Italian plant response rating [9, 20]: 90; Plant response rating, Ryegrass, Italian ([10]; 500 g ai/ha): 100; Plant response rating, Pigweed ([11]; 500 g ai/ha): 100; Plant response rating, Foxtail, Giant ([12]; 500 g ai/ha): 100; Galium plant response rating [13, 20]: 90; Plant response rating, Ragweed ([14]; 500 g ai/ha): 100; Wheat plant response rating [15, 20]: 70
Cc1cc(C)c(C2=NOC3(C2)CC(C)(C)CC(C)(C)C3)cc1NS(=O)(=O)C(F)(F)F [Compound 122] | 10 | 0 | 0 | 20 | 0 | 0 | 0 | 0 | 70 | 30 | 0 | 50 | 60 | 0 | 0 | 70 | 10 | 10 | 50 | 70 | Foxtail, Giant plant response rating [6, 20]: 20; Corn plant response rating (corn (Zea mays); [20]): 0; Ragweed plant response rating [7, 20]: 0; Plant response rating, Kochia (kochia (Bassia scoparia) [8]; 500 g ai/ha): 30; Plant response rating, Ryegrass, Italian [9, 18]: 0; Ryegrass, Italian plant response rating [9, 20]: 0; Plant response rating, Ryegrass, Italian ([10]; 500 g ai/ha): 80; Plant response rating, Pigweed ([11]; 500 g ai/ha): 30; Plant response rating, Foxtail, Giant ([12]; 500 g ai/ha): 100; Galium plant response rating [13, 20]: 90; Plant response rating, Ragweed ([14]; 500 g ai/ha): 0; Wheat plant response rating [15, 20]: 0
Cc1cc(C)c(C2=NOC3CCCCC23)cc1NS(=O)(=O)C(F)(F)F (stereo not drawn) [Compound 123] | 90 | 50 | 20 | 60 | 100 | 30 | 10 | 50 | 40 | 90 | 90 | 100 | 80 | 50 | 50 | 90 | 70 | 50 | 80 | 100 | Foxtail, Giant plant response rating [6, 20]: 80; Corn plant response rating (corn (Zea mays); [20]): 70; Ragweed plant response rating [7, 20]: 70; Plant response rating, Kochia (kochia (Bassia scoparia) [8]; 500 g ai/ha): 80; Plant response rating, Ryegrass, Italian [9, 18]: 50; Ryegrass, Italian plant response rating [9, 20]: 50; Plant response rating, Ryegrass, Italian ([10]; 500 g ai/ha): 100; Plant response rating, Pigweed ([11]; 500 g ai/ha): 100; Plant response rating, Foxtail, Giant ([12]; 500 g ai/ha): 100; Galium plant response rating [13, 20]: 90; Plant response rating, Ragweed ([14]; 500 g ai/ha): 80; Wheat plant response rating [15, 20]: 60
Cc1cc(C#N)c(C(=O)N2CCCCC2)cc1NS(=O)(=O)C(F)(F)F [Compound 126] | 0 | 10 | 20 | 70 | 0 | 0 | 0 | 0 | 0 | 0 | 70 | 20 | 80 | 0 | 0 | 0 | 30 | 30 | 90 | 40 | Foxtail, Giant plant response rating [6, 20]: 0; Corn plant response rating (corn (Zea mays); [20]): 20; Ragweed plant response rating [7, 20]: 30; Plant response rating, Kochia (kochia (Bassia scoparia) [8]; 500 g ai/ha): 30; Plant response rating, Ryegrass, Italian [9, 18]: 0; Ryegrass, Italian plant response rating [9, 20]: 0; Plant response rating, Ryegrass, Italian ([10]; 500 g ai/ha): 40; Plant response rating, Pigweed ([11]; 500 g ai/ha): 100; Plant response rating, Foxtail, Giant ([12]; 500 g ai/ha): 90; Galium plant response rating [13, 20]: 90; Plant response rating, Ragweed ([14]; 500 g ai/ha): 30; Wheat plant response rating [15, 20]: 0

From patent publication US20230278972A1, “SUBSTITUTED HALOALKYL SULFONANILIDE HERBICIDES” (FMC Corporation, priority 2020, published 2023)
